Measured values reported in publication PMC6277767, “Broad and Region-Specific Impacts of the Synthetic Cannabinoid CP 55,940 in Adolescent and Adult Female Mouse Brains” (Frontiers in Molecular Neuroscience, 2018).

System: CD1 female mouse brain lipidome
Assay: Brain-region lipid levels (HPLC/MS/MS lipidomics) 2 h after single i.p. 3 mg/kg CP 55,940 vs vehicle
Format: in vivo
Description: The Bloomington Institutional Animal Care and Use Committee of Indiana University reviewed and approved the animal procedures. Female mice from the CD1 strain were utilized to match our study examining THC’s effects on the brain lipidome ([Leishman et al., 2018]). Mice were given a single i.p. injection of either 3 mg/kg CP or 1:1:18 cremophor:ethanol:saline vehicle (please refer to the section “3 mg/kg CP Is Relevant for Synthetic Cannabinoid Abuse and Has Stronger Effects on the Female Mouse Brain Lipidome During Adolescence” for a justification of dose and use of female mice). Three different age groups were given injections: PND 35 and PND 50 adolescents, and adult mice (PND 113). At least eight mice in each age group received CP and at least eight received vehicle. Matching the THC study time course ([Leishman et al., 2018]), mice were sacrificed via rapid decapitation 2 h after injection. Brains were immediately removed and flash-frozen in liquid nitrogen, and then stored at -80°C until dissections were performed. Brains were dissected on an ice-cold dissection plate into the following regions: STR, HIPP, CER, THAL, CTX, HYP, MID, and STEM. These abbreviations for these brain areas will be used exclusively when discussing the results generated by these specific dissections. Each dissected area was immediately placed in liquid nitrogen and then stored at -80°C until used for lipid extraction.
Tissue extracts were performed as previously described ([Bradshaw et al., 2006]; [Stuart et al., 2013]; [Raboune et al., 2014]; [Leishman et al., 2016a],[b], [2017], [2018]). First, samples were shock frozen in liquid nitrogen, weighed, and transferred to a centrifuge tube. The mass of the largest sample was multiplied by 50 to determine how many milliliters of HPLC-grade methanol (Fisher, Fair Lawn, NJ, United States) to add. Then, samples were spiked with 500 pmol deuterium-labeled NAGly (d8NAGly; Cayman Chemical, Ann Arbor, MI, United States). Samples were placed on ice in darkness for 2 h then individually homogenized and centrifuged at 19,000 × g for 20 min at 20°C. Supernatants were diluted with HPLC water (purified in house) to make a solution of 75% water, 25% supernatant. Lipids were partially purified on C18 solid phase extraction columns (Agilent, Palo Alto, CA, United States). A series of four elutions with 1.5 mL of 60%, 75%, 85%, and 100% methanol were collected ([Stuart et al., 2013]; [Leishman et al., 2016a],[b], [2018]).
As previously described ([Bradshaw et al., 2006]; [Tan et al., 2006]; [Smoum et al., 2010]; [Stuart et al., 2013]; [Tortoriello et al., 2013]; [Raboune et al., 2014]; [Leishman et al., 2016a],[b], [2017], [2018]), samples were analyzed using an Applied Biosystems API 3000 triple quadrupole mass spectrometer with electrospray ionization (Foster City, CA, United States). Using an Agilent XDB-C18 reversed phase analytical column and optimized mobile phase gradients, 20 μL from each elution were chromatographed. Two Shimadzu 10ADvp pumps (Columbia, MD, United States) provided the pressure for gradient elution. Mobile phase A: 20% methanol, 80% water (v/v) and 1 mM ammonium acetate (Sigma, St. Louis, MO, United States). Mobile phase B: 100% methanol, 1 mM ammonium acetate. Every method run began with 0% mobile phase B, reached 100% mobile phase B flowing at 0.2 mL/min, and gradually returned to 0% mobile phase B.
This screening library will be referred to as the lipidome when discussing data from this study. HPLC/MS/MS data were analyzed using Analyst software (Applied Biosystems) ([Bradshaw et al., 2006]; [Tan et al., 2006]; [Stuart et al., 2013]; [Tortoriello et al., 2013]; [Raboune et al., 2014]; [Leishman et al., 2016a],[b], [2017], [2018]). Chromatograms (Supplementary Figure 3) were generated by determining the retention time of analytes from the analytical column with a [M-1] or [M+1] parent peak and a fragmentation peak corresponding to the programmed values. […]

CCCCCCC(C)(C)c1ccc([C@@H]2C[C@H](O)CC[C@H]2CCCO)c(O)c1 [CP 55,940]
total changes in lipid levels across the eight regions (PND 35): 231 | changes in lipid levels that were decreases (PND 35, eight regions): 152 | 2-arachidonoyl glycerol level vs vehicle (PND 35 CER): ↓ (1-1.49 times lower than vehicle) | 2-linoleoyl glycerol level vs vehicle (PND 35 CER): ↓ (1-1.49 times lower than vehicle) | 6-ketoPGF1α level vs vehicle (PND 35 CER): ↓↓ (1.50-1.99 times lower than vehicle) | Arachidonic acid level vs vehicle (PND 35 CER): ↓ (1-1.49 times lower than vehicle) | N-arachidonoyl GABA level vs vehicle (PND 35 CER): ↓ (1-1.49 times lower than vehicle) | N-arachidonoyl alanine level vs vehicle (PND 35 CER): ↓ (1-1.49 times lower than vehicle) | N-arachidonoyl glycine level vs vehicle (PND 35 CER): ↓ (1-1.49 times lower than vehicle) | N-arachidonoyl methionine level vs vehicle (PND 35 CER): ↓↓ (1.50-1.99 times lower than vehicle) | N-arachidonoyl serine level vs vehicle (PND 35 CER): ↓ (1-1.49 times lower than vehicle) | N-arachidonoyl taurine level vs vehicle (PND 35 CER): ↓ (1-1.49 times lower than vehicle) | N-arachidonoyl tyrosine level vs vehicle (PND 35 CER): ↓ (1-1.49 times lower than vehicle) | N-docosahexaenoyl GABA level vs vehicle (PND 35 CER): ↓ (1-1.49 times lower than vehicle) | N-docosahexaenoyl alanine level vs vehicle (PND 35 CER): ↓ (1-1.49 times lower than vehicle) | N-docosahexaenoyl glycine level vs vehicle (PND 35 CER): ↓ (1-1.49 times lower than vehicle) | N-docosahexaenoyl leucine level vs vehicle (PND 35 CER): ↑ (1-1.49 times higher than vehicle) | N-docosahexaenoyl serine level vs vehicle (PND 35 CER): ↓ (1-1.49 times lower than vehicle) | N-docosahexaenoyl tyrosine level vs vehicle (PND 35 CER): ↓ (1-1.49 times lower than vehicle) | N-linoleoyl glycine level vs vehicle (PND 35 CER): ↓ (1-1.49 times lower than vehicle) | N-linoleoyl leucine level vs vehicle (PND 35 CER): ↑ (1-1.49 times higher than vehicle) | N-linoleoyl phenylalanine level vs vehicle (PND 35 CER): ↑ (1-1.49 times higher than vehicle) | N-oleoyl GABA level vs vehicle (PND 35 CER): ↓ (1-1.49 times lower than vehicle) | N-oleoyl ethanolamine level vs vehicle (PND 35 CER): ↓ (1-1.49 times lower than vehicle) | N-oleoyl leucine level vs vehicle (PND 35 CER): ↑ (1-1.49 times higher than vehicle) | N-oleoyl phenylalanine level vs vehicle (PND 35 CER): ↑ (1-1.49 times higher than vehicle) | N-palmitoyl leucine level vs vehicle (PND 35 CER): ↑↑ (1.50-1.99 times higher than vehicle) | N-palmitoyl phenylalanine level vs vehicle (PND 35 CER): ↑ (1-1.49 times higher than vehicle) | N-palmitoyl proline level vs vehicle (PND 35 CER): ↓ (1-1.49 times lower than vehicle) | N-palmitoyl serine level vs vehicle (PND 35 CER): ↓ (1-1.49 times lower than vehicle) | N-palmitoyl tyrosine level vs vehicle (PND 35 CER): ↑ (1-1.49 times higher than vehicle) | N-palmitoyl valine level vs vehicle (PND 35 CER): ↑↑ (1.50-1.99 times higher than vehicle) | 2-palmitoyl glycerol level vs vehicle (PND 35 CTX): ↑↑ (1.50-1.99 times higher than vehicle) | 6-ketoPGF1α level vs vehicle (PND 35 CTX): ↓ (1-1.49 times lower than vehicle) | N- stearoyl valine level vs vehicle (PND 35 CTX): ↑ (1-1.49 times higher than vehicle) | N-arachidonoyl GABA level vs vehicle (PND 35 CTX): ↓ (1-1.49 times lower than vehicle) | N-arachidonoyl alanine level vs vehicle (PND 35 CTX): ↓ (1-1.49 times lower than vehicle) | N-arachidonoyl glycine level vs vehicle (PND 35 CTX): ↓ (1-1.49 times lower than vehicle) | N-arachidonoyl methionine level vs vehicle (PND 35 CTX): ↓↓ (1.50-1.99 times lower than vehicle) | N-arachidonoyl phenylalanine level vs vehicle (PND 35 CTX): ↓ (1-1.49 times lower than vehicle) | N-arachidonoyl serine level vs vehicle (PND 35 CTX): ↓ (1-1.49 times lower than vehicle) | N-arachidonoyl taurine level vs vehicle (PND 35 CTX): ↓ (1-1.49 times lower than vehicle) | N-arachidonoyl tyrosine level vs vehicle (PND 35 CTX): ↓ (1-1.49 times lower than vehicle) | N-docosahexaenoyl GABA level vs vehicle (PND 35 CTX): ↓ (1-1.49 times lower than vehicle) | N-docosahexaenoyl glycine level vs vehicle (PND 35 CTX): ↓ (1-1.49 times lower than vehicle) | N-docosahexaenoyl leucine level vs vehicle (PND 35 CTX): ↑↑ (1.50-1.99 times higher than vehicle) | N-docosahexaenoyl serine level vs vehicle (PND 35 CTX): ↓↓ (1.50-1.99 times lower than vehicle) | N-docosahexaenoyl valine level vs vehicle (PND 35 CTX): ↑ (1-1.49 times higher than vehicle) | N-linoleoyl GABA level vs vehicle (PND 35 CTX): ↓ (1-1.49 times lower than vehicle) | N-linoleoyl glycine level vs vehicle (PND 35 CTX): ↓ (1-1.49 times lower than vehicle) | N-oleoyl GABA level vs vehicle (PND 35 CTX): ↓ (1-1.49 times lower than vehicle) | N-oleoyl alanine level vs vehicle (PND 35 CTX): ↓ (1-1.49 times lower than vehicle) | N-oleoyl glycine level vs vehicle (PND 35 CTX): ↓ (1-1.49 times lower than vehicle) | N-oleoyl leucine level vs vehicle (PND 35 CTX): ↑ (1-1.49 times higher than vehicle) | N-oleoyl methionine level vs vehicle (PND 35 CTX): ↓ (1-1.49 times lower than vehicle) | N-oleoyl valine level vs vehicle (PND 35 CTX): ↑ (1-1.49 times higher than vehicle) | N-palmitoyl leucine level vs vehicle (PND 35 CTX): ↑↑ (1.50-1.99 times higher than vehicle) | N-palmitoyl serine level vs vehicle (PND 35 CTX): ↓ (1-1.49 times lower than vehicle) | N-palmitoyl tyrosine level vs vehicle (PND 35 CTX): ↑ (1-1.49 times higher than vehicle) | N-palmitoyl valine level vs vehicle (PND 35 CTX): ↑↑ (1.50-1.99 times higher than vehicle) | N-stearoyl serine level vs vehicle (PND 35 CTX): ↓ (1-1.49 times lower than vehicle) | N-stearoyl tyrosine level vs vehicle (PND 35 CTX): ↑ (1-1.49 times higher than vehicle) | PGF2α level vs vehicle (PND 35 CTX): ↑ (1-1.49 times higher than vehicle) | phosphoLEA level vs vehicle (PND 35 CTX): ↑↑ (1.50-1.99 times higher than vehicle) | 2-arachidonoyl glycerol level vs vehicle (PND 35 HIPP): ↓ (1-1.49 times lower than vehicle) | 2-linoleoyl glycerol level vs vehicle (PND 35 HIPP): ↓↓ (1.50-1.99 times lower than vehicle) | 2-oleoyl glycerol level vs vehicle (PND 35 HIPP): ↓ (1-1.49 times lower than vehicle) | 6-ketoPGF1α level vs vehicle (PND 35 HIPP): ↑ (1-1.49 times higher than vehicle) | Arachidonic acid level vs vehicle (PND 35 HIPP): ↓ (1-1.49 times lower than vehicle) | Linoleic acid level vs vehicle (PND 35 HIPP): ↓ (1-1.49 times lower than vehicle) | N- stearoyl valine level vs vehicle (PND 35 HIPP): ↑ (1-1.49 times higher than vehicle) | N-arachidonoyl GABA level vs vehicle (PND 35 HIPP): ↓↓ (1.50-1.99 times lower than vehicle) | N-arachidonoyl alanine level vs vehicle (PND 35 HIPP): ↓ (1-1.49 times lower than vehicle) | N-arachidonoyl ethanolamine level vs vehicle (PND 35 HIPP): ↓ (1-1.49 times lower than vehicle) | N-arachidonoyl glycine level vs vehicle (PND 35 HIPP): ↓ (1-1.49 times lower than vehicle) | N-arachidonoyl phenylalanine level vs vehicle (PND 35 HIPP): ↓ (1-1.49 times lower than vehicle) | N-arachidonoyl serine level vs vehicle (PND 35 HIPP): ↓↓↓ (2-2.99 times lower than vehicle) | N-arachidonoyl taurine level vs vehicle (PND 35 HIPP): ↓ (1-1.49 times lower than vehicle) | N-docosahexaenoyl GABA level vs vehicle (PND 35 HIPP): ↓↓ (1.50-1.99 times lower than vehicle) | N-docosahexaenoyl alanine level vs vehicle (PND 35 HIPP): ↓ (1-1.49 times lower than vehicle) | N-docosahexaenoyl ethanolamine level vs vehicle (PND 35 HIPP): ↓ (1-1.49 times lower than vehicle) | N-docosahexaenoyl glycine level vs vehicle (PND 35 HIPP): ↓ (1-1.49 times lower than vehicle) | N-docosahexaenoyl leucine level vs vehicle (PND 35 HIPP): ↑ (1-1.49 times higher than vehicle) | N-docosahexaenoyl serine level vs vehicle (PND 35 HIPP): ↓ (1-1.49 times lower than vehicle) | N-linoleoyl GABA level vs vehicle (PND 35 HIPP): ↓↓ (1.50-1.99 times lower than vehicle) | N-linoleoyl alanine level vs vehicle (PND 35 HIPP): ↓ (1-1.49 times lower than vehicle) | N-oleoyl GABA level vs vehicle (PND 35 HIPP): ↓↓ (1.50-1.99 times lower than vehicle) | N-oleoyl alanine level vs vehicle (PND 35 HIPP): ↓ (1-1.49 times lower than vehicle) | N-oleoyl ethanolamine level vs vehicle (PND 35 HIPP): ↓ (1-1.49 times lower than vehicle) | N-oleoyl glycine level vs vehicle (PND 35 HIPP): ↓ (1-1.49 times lower than vehicle) | N-oleoyl methionine level vs vehicle (PND 35 HIPP): ↓ (1-1.49 times lower than vehicle) | N-oleoyl valine level vs vehicle (PND 35 HIPP): ↑ (1-1.49 times higher than vehicle) | N-palmitoyl alanine level vs vehicle (PND 35 HIPP): ↓ (1-1.49 times lower than vehicle) | N-palmitoyl ethanolamine level vs vehicle (PND 35 HIPP): ↓ (1-1.49 times lower than vehicle) | N-palmitoyl leucine level vs vehicle (PND 35 HIPP): ↑ (1-1.49 times higher than vehicle) | N-palmitoyl phenylalanine level vs vehicle (PND 35 HIPP): ↑ (1-1.49 times higher than vehicle) | N-palmitoyl tyrosine level vs vehicle (PND 35 HIPP): ↑ (1-1.49 times higher than vehicle) | N-palmitoyl valine level vs vehicle (PND 35 HIPP): ↑ (1-1.49 times higher than vehicle) | N-stearoyl GABA level vs vehicle (PND 35 HIPP): ↓ (1-1.49 times lower than vehicle) | N-stearoyl alanine level vs vehicle (PND 35 HIPP): ↓ (1-1.49 times lower than vehicle) | N-stearoyl glycine level vs vehicle (PND 35 HIPP): ↓ (1-1.49 times lower than vehicle) | Oleic Acid level vs vehicle (PND 35 HIPP): ↓ (1-1.49 times lower than vehicle)
